Reference: PubChem BioAssay AID330 (DTP/NCI, 2004)
“And” between values parts separate entries of the source, which are not always exact repeats. Equal values may be shown once. Toxic doses and inconclusive results are not listed. Numbered stars: 1 amine (or outer) side, 2 acyl side, 3 side chain; on linkers, the order of the positions; unused ones are H or OH. Bridge positions count the residues as written; N and C are the ends. Square brackets hold non-standard residues; d marks the D form. Peptide text beside a SMILES is read from it. I, II: the chains in the order shown. Actinocin(9to1) = Cc1c2oc3c(C)ccc(C(=O)[*:1])c3nc-2c(C(=O)[*:2])c(N)c1=O; NMeV = CN[CH](C(=O)O)C(C)C; Pip = O=C(O)[CH]1CCCCN1; Sar = CNCC(=O)O

Test system: P388 leukemia ip, CD2F1 mice, survival T/C
Test: NCI In Vivo Anticancer Drug Screen. Data for tumor model P388 Leukemia (intraperitoneal) in CD2F1 (CDF1) mice
Conditions: endpoint: median survival time, higher = longer survival
How it was run: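 Mice carrying the transplanted tumor received test compound or vehicle. Survival was recorded in each group, and the value is the treated-group measurement divided by that of the vehicle-treated control group.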

[1] = dose: 25.0 mg/kg/injection, schedule: Q01DX009 (ip), vehicle: saline with Tween-80
[2] = dose: 50.0 mg/kg/injection, schedule: Q01DX009 (ip), vehicle: saline with Tween-80
[3] = dose: 100.0 mg/kg/injection, schedule: Q01DX009 (ip), vehicle: saline with Tween-80
[4] = dose: 50.0 mg/kg/injection, schedule: Q01DX005 (ip), vehicle: saline with Tween-80
[5] = dose: 100.0 mg/kg/injection, schedule: Q01DX005 (ip), vehicle: saline with Tween-80
[6] = dose: 200.0 mg/kg/injection, schedule: Q01DX005 (ip), vehicle: saline with Tween-80
[7] = dose: 60.0 mg/kg/injection, schedule: Q01DX005 (ip), vehicle: Klucel (hydroxypropylcellulose) (HPC)
[8] = dose: 120.0 mg/kg/injection, schedule: Q01DX005 (ip), vehicle: Klucel (hydroxypropylcellulose) (HPC)
[9] = dose: 240.0 mg/kg/injection, schedule: Q01DX005 (ip), vehicle: Klucel (hydroxypropylcellulose) (HPC)
[10] = dose: 25.0 mg/kg/injection, schedule: Q01DX005 (ip), vehicle: Klucel (hydroxypropylcellulose) (HPC)
[11] = dose: 50.0 mg/kg/injection, schedule: Q01DX005 (ip), vehicle: Klucel (hydroxypropylcellulose) (HPC)
[12] = dose: 100.0 mg/kg/injection, schedule: Q01DX005 (ip), vehicle: Klucel (hydroxypropylcellulose) (HPC)
[13] = dose: 200.0 mg/kg/injection, schedule: Q01DX005 (ip), vehicle: Klucel (hydroxypropylcellulose) (HPC)
[14] = dose: 60.0 mg/kg/injection, schedule: Q01DX005 (ip), vehicle: saline with Tween-80
[15] = dose: 120.0 mg/kg/injection, schedule: Q01DX005 (ip), vehicle: saline with Tween-80
[16] = dose: 240.0 mg/kg/injection, schedule: Q01DX005 (ip), vehicle: saline with Tween-80
[17] = dose: 1.56 mg/kg/injection, schedule: Q01DX009 (ip), vehicle: saline with Tween-80
[18] = dose: 3.13 mg/kg/injection, schedule: Q01DX009 (ip), vehicle: saline with Tween-80
[19] = dose: 6.25 mg/kg/injection, schedule: Q01DX009 (ip), vehicle: saline with Tween-80
[20] = dose: 12.5 mg/kg/injection, schedule: Q01DX009 (ip), vehicle: saline with Tween-80
[21] = dose: 25.0 mg/kg/injection, schedule: Q01DX009 (ip), vehicle: Klucel (hydroxypropylcellulose) (HPC)

Cc1c2[nH]c(C(=O)O)cc(=O)c2cc2c(=O)cc(C(=O)O)[nH]c12
T/C [1]: 100 % of control
T/C [2]: 99 % of control
T/C [3]: 94 % of control

OCCc1cc(Cl)no1
T/C [4]: 100 % of control
T/C [5]: 102 % of control
T/C [6]: 109 % of control

COC(=O)Cn1/c(=N\N=C(/C)c2ccc([N+](=O)[O-])cc2)sc2ccccc21
T/C (dose: 12.5 mg/kg/injection, schedule: Q01DX001 (ip), vehicle: saline with Tween-80): 92 % of control
T/C (dose: 25.0 mg/kg/injection, schedule: Q01DX001 (ip), vehicle: saline with Tween-80): 89 % of control
T/C (dose: 50.0 mg/kg/injection, schedule: Q01DX001 (ip), vehicle: saline with Tween-80): 89 % of control
T/C (dose: 400.0 mg/kg/injection, schedule: Q01DX001 (ip), vehicle: saline with Tween-80): 88 % of control

CN(CN(C)N=Nc1ccc(Cl)cc1)CN(C)N=Nc1ccc(Cl)cc1
T/C [7]: 104 % of control
T/C [8]: 110 % of control
T/C [9]: 110 % of control

Cc1c(-c2ccccc2)nn(CC(=O)O)c(=O)c1C#N
T/C (dose: 37.5 mg/kg/injection, schedule: Q04DX002 (ip), vehicle: alkali diluted with water): 106 % of control
T/C (dose: 75.0 mg/kg/injection, schedule: Q04DX002 (ip), vehicle: alkali diluted with water): 104 % of control
T/C (dose: 150.0 mg/kg/injection, schedule: Q04DX002 (ip), vehicle: alkali diluted with water): 106 % of control
T/C (dose: 300.0 mg/kg/injection, schedule: Q04DX002 (ip), vehicle: alkali diluted with water): 103 % of control

CC(=O)c1c(C)cc(C)c(C(C)=O)c1C
T/C (dose: 50.0 mg/kg/injection, schedule: Q01DX009 (ip), vehicle: saline): 102 % of control
T/C (dose: 100.0 mg/kg/injection, schedule: Q01DX009 (ip), vehicle: saline): 96 % of control
T/C (dose: 200.0 mg/kg/injection, schedule: Q01DX009 (ip), vehicle: saline): 91 % of control

[Mn]=[Se]
T/C (dose: 7.5 mg/kg/injection, schedule: Q01DX005 (ip), vehicle: other): 101 % of control
T/C (dose: 15.0 mg/kg/injection, schedule: Q01DX005 (ip), vehicle: other): 100 % of control and 103 % of control
T/C (dose: 30.0 mg/kg/injection, schedule: Q01DX005 (ip), vehicle: other): 103 % of control and 94 % of control
T/C (dose: 60.0 mg/kg/injection, schedule: Q01DX005 (ip), vehicle: acid diluted with saline): 110 % of control
T/C (dose: 60.0 mg/kg/injection, schedule: Q01DX005 (ip), vehicle: other): 100 % of control

CC1(C)Nc2cc3c(cc2-n2cccc21)oc1ccccc13
T/C (dose: 12.5 mg/kg/injection, schedule: Q01DX005 (ip), vehicle: Klucel (hydroxypropylcellulose) (HPC)): 111 % of control
T/C [10]: 99 % of control
T/C (dose: 50.0 mg/kg/injection, schedule: Q01DX005 (ip), vehicle: DMSO): 100 % of control
T/C [11]: 105 % of control
T/C (dose: 100.0 mg/kg/injection, schedule: Q01DX005 (ip), vehicle: DMSO): 95 % of control
T/C [12]: 101 % of control
T/C (dose: 200.0 mg/kg/injection, schedule: Q01DX005 (ip), vehicle: DMSO): 96 % of control
T/C [13]: 111 % of control
T/C (dose: 400.0 mg/kg/injection, schedule: Q01DX005 (ip), vehicle: DMSO): 100 % of control
T/C (dose: 800.0 mg/kg/injection, schedule: Q01DX005 (ip), vehicle: DMSO): 98 % of control

COc1cccc(C2SCC(=O)N2c2nncs2)c1[N+](=O)[O-] (configuration not stated)
T/C [14]: 110 % of control
T/C [15]: 100 % of control
T/C [16]: 91 % of control

Cc1cc[n+](C)c(-c2ccccc2)c1
T/C (dose: 6.25 mg/kg/injection, schedule: Q01DX009 (ip), vehicle: saline): 90 % of control
T/C (dose: 12.5 mg/kg/injection, schedule: Q01DX009 (ip), vehicle: saline): 104 % of control
T/C (dose: 25.0 mg/kg/injection, schedule: Q01DX009 (ip), vehicle: saline): 113 % of control

COCC/C=C\CN(C(C)C)C(C)C
T/C [2]: 99 % of control
T/C [3]: 101 % of control

O=C(O)c1cc[c]([Hg][S]c2ncnc3nc[nH]c23)cc1
T/C [17]: 106 % of control
T/C [18]: 110 % of control and 123 % of control
T/C [19]: 100 % of control
T/C [20]: 100 % of control
T/C [21]: 121 % of control

CC1(C)N=C(Oc2ccc(Cl)cc2Cl)NC(=S)N1
T/C [14]: 95 % of control
T/C [15]: 97 % of control
T/C [16]: 95 % of control

CCC1C=Cc2ccccc2NC1 (configuration not stated)
T/C [4]: 100 % of control
T/C [5]: 94 % of control
T/C [6]: 98 % of control

N#Cc1ccc(OC(=O)Nc2ccc(Cl)c(Cl)c2)cc1
T/C [7]: 118 % of control
T/C [8]: 107 % of control
T/C [9]: 115 % of control

CC(=O)Nc1ccc2c(c1)nc(-c1ccccn1)n2CCc1ccccn1
T/C [10]: 103 % of control
T/C [11]: 102 % of control
T/C [12]: 102 % of control
T/C [13]: 102 % of control

Cc1ccc(CN2CCN(Cc3ccc(C)o3)C(C)C2)o1 (configuration not stated)
T/C (dose: 50.0 mg/kg/injection, schedule: Q01DX005 (ip), vehicle: saline): 101 % of control
T/C (dose: 100.0 mg/kg/injection, schedule: Q01DX005 (ip), vehicle: saline): 101 % of control
T/C (dose: 200.0 mg/kg/injection, schedule: Q01DX005 (ip), vehicle: saline): 100 % of control

COC(=O)C1(CC(=O)C=C(C)C)NC(=S)NC(=O)C1C#N (configuration not stated)
T/C (dose: 60.0 mg/kg/injection, schedule: Q01DX005 (ip), vehicle: saline): 98 % of control
T/C (dose: 120.0 mg/kg/injection, schedule: Q01DX005 (ip), vehicle: saline): 103 % of control
T/C (dose: 240.0 mg/kg/injection, schedule: Q01DX005 (ip), vehicle: saline): 98 % of control

O=C1O/C(=C2/OC(=O)c3ccccc32)c2ccccc21
T/C [18]: 94 % of control
T/C [19]: 100 % of control
T/C [20]: 100 % of control and 91 % of control
T/C [1]: 100 % of control
T/C [2]: 88 % of control
T/C [3]: 88 % of control
T/C (dose: 200.0 mg/kg/injection, schedule: Q01DX009 (ip), vehicle: saline with Tween-80): 90 % of control
T/C (dose: 400.0 mg/kg/injection, schedule: Q01DX009 (ip), vehicle: saline with Tween-80): 92 % of control

CC1=CC2(C)OC3C(=O)N(c4ccc(Cl)cc4)C(=O)C3C2N=C1 (configuration not stated)
T/C [14]: 104 % of control
T/C [15]: 99 % of control
T/C [16]: 100 % of control

O=c1c2ccccc2nc(-c2ccccc2)n1O
T/C (dose: 12.5 mg/kg/injection, schedule: Q01DX009 (ip), vehicle: Klucel (hydroxypropylcellulose) (HPC)): 103 % of control and 112 % of control
T/C [21]: 118 % of control and 94 % of control
T/C (dose: 50.0 mg/kg/injection, schedule: Q01DX009 (ip), vehicle: Klucel (hydroxypropylcellulose) (HPC)): 120 % of control
T/C (dose: 100.0 mg/kg/injection, schedule: Q01DX009 (ip), vehicle: Klucel (hydroxypropylcellulose) (HPC)): 94 % of control
T/C (dose: 200.0 mg/kg/injection, schedule: Q01DX009 (ip), vehicle: Klucel (hydroxypropylcellulose) (HPC)): 91 % of control

O=C(Nc1ccc(F)cc1)ON=C1CCCCC1
T/C [14]: 92 % of control
T/C [15]: 97 % of control
T/C [16]: 90 % of control

Cc1c2oc3c(C)ccc(C(=O)NC4C(=O)NC(C(C)C)C(=O)N5CCCCC5C(=O)N(C)CC(=O)N(C)C(C(C)C)C(=O)OC4C)c3nc-2c(C(=O)NC2C(=O)NC(C(C)C)C(=O)N3CCCCC3C(=O)N(C)CC(=O)N(C)C(C(C)C)C(=O)OC2C)c(N)c1=O (configuration not stated) (I: TV[Pip][Sar][NMeV] / II: TV[Pip][Sar][NMeV]; ester I:1-I:C, II:1-II:C; linker I:N-II:N via Actinocin(9to1); configuration not given here)
T/C (dose: 0.39 mg/kg/injection, schedule: Q01DX009 (ip), vehicle: saline with Tween-80): 110 % of control
T/C (dose: 0.78 mg/kg/injection, schedule: Q01DX009 (ip), vehicle: saline with Tween-80): 119 % of control
T/C [17]: 180 % of control
T/C (dose: 3.12 mg/kg/injection, schedule: Q01DX009 (ip), vehicle: saline with Tween-80): 190 % of control
T/C [19]: 165 % of control and 209 % of control
T/C [20]: 195 % of control
